This is an account of results in patent US20070078263A1, “BIARYL SUBSTITUTED HETEROCYCLE INHIBITORS OF LTA4H FOR TREATING INFLAMMATION” (deCODE Chemistry, Inc., priority 2005, published 2007).

For one experiment, the system named is human whole blood. As to the kind of experiment: Ex vivo assay testing inhibitory activity in human whole blood after stimulation with calcium ionophore (LTB4 ELISA).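 Further: heparinized human blood preincubated 15 min at 37 °C with compound, then ionomycin-stimulated for 30 min, LTB4 in plasma supernatant quantified by ELISA.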 Format: cell-based. Particulars: Ionomycin 20 μM, read-out: hWBIC50. A general note: In an ELISA, binding on a coated surface is turned into a signal by an enzyme label.
The next experiment addresses T1, human LTA4 hydrolase (Homo sapiens, UniProt P09960).
T1 construct: A human LTA4 hydrolase full-length cDNA clone (NM 000895) was purchased; His tag (6xHis of vector pDEST17); made in house; host or cells: Escherichia coli BL21-AI
T1 sequence (P09960 1-611): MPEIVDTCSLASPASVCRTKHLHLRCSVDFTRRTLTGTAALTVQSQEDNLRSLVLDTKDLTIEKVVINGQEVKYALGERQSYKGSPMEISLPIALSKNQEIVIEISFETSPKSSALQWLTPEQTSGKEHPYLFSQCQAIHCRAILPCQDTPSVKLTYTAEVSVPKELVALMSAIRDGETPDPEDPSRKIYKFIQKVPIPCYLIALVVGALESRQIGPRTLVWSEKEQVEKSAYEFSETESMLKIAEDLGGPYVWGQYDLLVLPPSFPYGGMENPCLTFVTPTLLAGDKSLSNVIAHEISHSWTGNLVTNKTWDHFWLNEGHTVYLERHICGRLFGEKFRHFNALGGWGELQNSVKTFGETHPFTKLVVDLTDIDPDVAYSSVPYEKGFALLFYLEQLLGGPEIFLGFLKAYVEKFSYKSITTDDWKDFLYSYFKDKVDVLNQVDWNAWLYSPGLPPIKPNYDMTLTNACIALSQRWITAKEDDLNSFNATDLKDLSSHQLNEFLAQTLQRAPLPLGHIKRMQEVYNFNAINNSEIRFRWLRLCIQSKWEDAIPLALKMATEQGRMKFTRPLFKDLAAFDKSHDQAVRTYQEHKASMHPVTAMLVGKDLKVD
As to the kind of experiment: In vitro assay testing inhibitory activity against purified recombinant human LTA4 hydrolase (LTB4 formed, LC-MS/MS).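 Further: 200 nM enzyme preincubated 10 min at room temperature with serial inhibitor dilutions in pH 8.0 Tris buffer with BSA and 10% DMSO, then 2 µM LTA4 added.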 Type of experiment: biochemical. Particulars: recombinant human LTA4 hydrolase 200 nM, LTA4 2 μM; read-out: AvgIC50.

Experiment [1] relates to ionophore-induced LTB4 production. The settings on record: oral administration; cited from earlier work.
A further experiment relates to primate model. Particulars: eight weeks of treatment; cited from earlier work.
The test system of experiment [2] is ionophore-induced LTB4 production. Particulars: oral administration; cited from earlier work. This is another data set of the same source.

Structures can show the parent of a compound that is named as a salt. Some results are limits rather than exact numbers.

Protocol for human whole blood: (2) Ex vivo assay testing inhibitory activity in human whole blood after stimulation with calcium ionophor.
Human blood was collected in heparin-containing Vacutainer tubes. […] Then 4 μl of a series of compound dilutions (in DMSO) were added, followed by a 15 min incubation at 37° C. with gentle shaking. After that, blood samples were stimulated by adding Ionomycin (Calbiochem) to a final concentration of 20 μM. After another incubation at 37° C. for 30 min, samples were centrifuged for 5 min at 1800 g and 4° C. Supernatants were taken and LTB4 concentrations were determined using a commercially available enzyme-linked immunosobentassay (R&D Systems, Minneapolis, Minn.) according to the manufacturer's instructions.

Consider `Brc1ccc(Cc2ccc(OC[C@H]3CCCN3)cc2)cc1` [Example 105, (R)-2-[4-(4-Bromo-benzyl)-phenoxymethyl]-pyrrolidine hydrogen chloride salt], for which the IC50 with human whole blood and at human LTA4 hydrolase was less than 5 µM throughout.

Regarding `Ic1ccc(Cc2ccc(OC[C@H]3CCCN3)cc2)cc1` [Example 106, (R)-2-[4-(4-Iodo-benzyl)-phenoxymethyl]-pyrrolidine Hydrogen chloride salt], the IC50 with human whole blood and on human LTA4 hydrolase was less than 5 µM throughout.

Turning to `c1csc(-c2ccc(Cc3ccc(OC[C@H]4CCCN4)cc3)cc2)c1` [Example 107, (R)-2-[4-(2-thiophen-benzyl)-phenoxymethyl]-pyrrolidine hydrogen chloride salt], the IC50 with human whole blood and on human LTA4 hydrolase was less than 5 µM each time.

Take `c1cc(-c2ccc(Cc3ccc(OC[C@H]4CCCN4)cc3)cc2)co1` [Example 108, (R)-2-[4-(3-Furan-benzyl)-phenoxymethyl]-pyrrolidine hydrogen chloride salt]: the IC50 in the experiment on human whole blood and at human LTA4 hydrolase was less than 5 µM in each case.

`c1coc(-c2ccc(Cc3ccc(OC[C@H]4CCCN4)cc3)cc2)c1` [Example 109, (R)-2-[4-(2-Furan-benzyl)-phenoxymethyl]-pyrrolidine hydrogen chloride salt]: the IC50 in the experiment with human whole blood and at human LTA4 hydrolase was less than 5 µM throughout.

Consider `Cc1ccc(-c2ccc(Cc3ccc(OC[C@H]4CCCN4)cc3)cc2)s1` [Example 110, (R)-2-{4-[4-(5-methyl-thiophen-2-yl)-benzyl]-phenoxymethyl}-pyrrolidine hydrogen chloroide salt], for which the IC50 in the experiment with human whole blood is 5 to 20 µM; on human LTA4 hydrolase it was less than 5 µM.

With `Clc1ccc(-c2ccc(Cc3ccc(OC[C@H]4CCCN4)cc3)cc2)s1` [Example 111, (R)-2-{4-[4-(5-chloro-thiophen-2-yl)-benzyl]-phenoxymethyl}-pyrrolidine hydrogen chloroide salt], the IC50 with human whole blood and on human LTA4 hydrolase was less than 5 µM throughout.

Turning to `O=C(O)CCCN1CCC[C@@H]1COc1ccc(Cc2ccc(-c3ccsc3)cc2)cc1` [Example 112, 4-{(R)-2-[4-(4-Thiophen-3-yl-benzyl)-phenoxymethyl]-pyrrolidin-1-yl}-butyric acid hydrogen chloride salt], the IC50 in the experiment with human whole blood and on human LTA4 hydrolase was less than 5 µM in each case.

Consider `O=C(O)CCCN1CCC[C@@H]1COc1ccc(Cc2ccc(-c3cccs3)cc2)cc1` [Example 113, 4-{(R)-2-[4-(4-Thiophen-2-yl-benzyl)-phenoxymethyl]-pyrrolidin-1-yl}-butyric acid hydrogen chloride salt], for which the IC50 with human whole blood and at human LTA4 hydrolase was less than 5 µM throughout.

Regarding `c1cc(-c2ccc(Oc3ccc(OC[C@H]4CCCN4)cc3)cc2)cs1` [Example 130, (R)-2-[4-(4-Thiophen-3-yl-phenoxy)-phenoxymethyl]-pyrrolidine-1-hydrogen chloride salt], the IC50 is less than 5 µM in the experiment on human whole blood and 5 to 20 µM at human LTA4 hydrolase.

In the case of `c1cnn(-c2ccc(Oc3ccc(OC[C@H]4CCCN4)cc3)cc2)c1` [Example 133, 1-{4-[4-((R)-1-Pyrrolidin-2-ylmethoxy)-phenoxy]-phenyl}-1H-pyrazole, hydrogen chloride salt], the IC50 is less than 5 µM in the experiment on human whole blood and 5 to 20 µM on human LTA4 hydrolase.

Consider `O=C(O)CCCN1CCC[C@@H]1COc1ccc(Oc2ccc(-n3cccn3)cc2)cc1` [Example 134, 4-{(R)-2-[4-(4-Pyrazol-1-yl-phenoxy)-phenoxymethyl]-pyrrolidin-1-yl}-butyric acid], for which the IC50 in the experiment with human whole blood was less than 5 µM; at human LTA4 hydrolase, 5 to 20 µM.

In the case of `c1ccc(CCc2ccc(OC[C@H]3CCCN3)cc2)cc1` [Example 135, (R)-2-(4-Phenethyl-phenoxymethyl)-pyrrolidine], the IC50 with human whole blood and at human LTA4 hydrolase was 5 to 20 µM each time.

Take `c1csc(-c2ccc(Oc3ccc(OC[C@H]4CCCN4)cc3)cc2)n1` [Example 146, 2-{4-[4-((R)-1-Pyrrolidin-2-ylmethoxy)-phenoxy]-phenyl}-thiazole hydrochloride salt]: the IC50 with human whole blood and at human LTA4 hydrolase was less than 5 µM throughout.

As to `c1ccc(-c2ccc(Cc3ccc(OC[C@H]4CCCN4)cc3)s2)cc1` [Example 159, (R)-2-[4-(5-Phenyl-thiophen-2-ylmethyl)-phenoxymethyl]-pyrrolidine hydrochloride salt], the IC50 in the experiment with human whole blood and at human LTA4 hydrolase was less than 5 µM each time.

In the case of `O=C(O)CCCN1CCC[C@H]1COc1ccc(Cc2ccc(-c3ccsc3)cc2)cc1` [Example 169, 4-{(S)-2-[4-(4-Thiophen-3-yl-benzyl)-phenoxymethyl]-pyrrolidin-1-yl}-butyric acid sodium salt], the IC50 in the experiment with human whole blood and at human LTA4 hydrolase was less than 5 µM throughout.

On to `CN(CCCOc1ccc(Cc2ccccc2)cc1)CCC(=O)O.Cl` [SC57461], for which the “inhibition of ionophore-induced LTB4 production in rat peritoneum in vivo” value in experiment [1] is listed as “inhibition of ionophore-induced LTB4 production”. Moreover, in the experiment on primate model, the “colitis symptoms in a primate model” value was “significantly improved colitis symptoms”. Besides, in experiment [2], the “inhibition of ionophore-induced LTB4 production in mouse blood ex vivo” value is on record as “inhibition of ionophore-induced LTB4 production”.
